Measurements published in patent US10562912B2 (C&C Research Laboratories, priority 2013, dated 2020).

Tests used:
Assay type in all cases: cell-based
[1] = tested on: DU-145; assay: Cell growth inhibition assay, prostate cancer cell line DU-145; conditions: Homo sapiens, DU-145 prostate cancer cell line
Method in brief: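 Luminescent CellTiter-Glo readout of viable cells after 72–96 h compound exposure (37° C., 5% CO2). Seeding: 3,000 cells/well for DU-145 and HCT116, 5,000 cells/well for SW626. Controls were medium without cells and 0.1% DMSO vehicle.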

[2] = tested on: U266; assay: Cell growth inhibition assay, blood cancer cell line U266; conditions: Homo sapiens, U-266 blood cancer cell line
Protocol: The inhibitory effects of the compounds of the present invention against the growth of cancer cells were evaluated as shown below. The cancer cell lines including stomach cancer cell line (AGS), breast cancer cell lines (MDA-MB-231, MDA-MB-468, and BT-549), prostate cancer cell lines (LNCaP and DU-145), colon cancer cell line (HCT116), ovarian cancer cell line (SW626), liver cancer cell line (Hep3B), kidney cancer cell line (ACHN), lung cancer cell line (NCI-H23) and blood cancer cell lines (HEL92.1.7 and U266) were cultured under the protocol provided by each supplier. A medium supplemented with 10 ng/mL of IL-6 was used for LNCaP, a prostate cancer cell line, when treated with a drug. Each type of cells to be used in experiments were sub-cultured in a 96-well plate by counting the exact number of cells using Tali™ Image-based Cytometer (Life Technologies). In a 96-well plate, AGS, HCT116, and DU-145 were employed with 3,000 cells/well; NCI-H23, SW626, Hep3B, ACHN, BT-549, MDA-MB-231, HEL92.1.7, and U266 were employed with 5,000 cells/well; and LNCaP and MDA-MB-468 were employed with 10,000 cells/well. The cells were treated with the compounds listed in Examples which were diluted in various concentrations. Upon completion of the compounds treatment, AGS, HCT116, SW626, DU145, NCI-H23, Hep3B, ACHN, BT-549, LNCaP, HEL92.1.7, and U266 cells were cultured at 37° C. under 5% CO2 for from 72 to 96 hours, and MDA-MB-231 and MDA-MB-468 cells were cultured at 37° C. in air for from 72 to 96 hours. Subsequently, the cells were observed under microscope and drug precipitation and particular findings were investigated and recorded. And then, the 96-well plate was placed at room temperature for 30 minutes, added with 20 μL/well of CellTiter-Glo solution (Cat No. G7573, Promega) and shaken for 10 minutes, followed by being subjected to the measurement using PHERAstar™ microplate reader (BMG LABTECH) according to the supplier's general luminometer protocol. Wells where only culture liquid added without cell plating were used as a negative control, whereas wells where culture liquid containing 0.1% DMSO instead of the compounds listed in Examples were used as a positive control.

[3] = tested on: HEL92.1.7; assay: Cell growth inhibition assay, blood cancer cell line HEL92.1.7; conditions: Homo sapiens, HEL 92.1.7, HEL92.1.7 blood cancer cell line
Method in brief: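 Cells were seeded at 3,000/well (HCT116, DU-145) or 5,000/well (SW626 and the others) and exposed to serial compound dilutions for 72 to 96 h at 37 °C under 5% CO2. Viability was read as CellTiter-Glo luminescence against 0.1% DMSO and cell-free wells.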

[4] = biological target: T1, STAT3 (Homo sapiens, UniProt P40763); assay: STAT3 reporter gene assay (luciferase), LNCaP stable cell line (pSTAT3-TA-luc), IL-6 stimulation
T1 construct: plasmid pSTAT3-TA-luc), which contains a stably operating STAT3 promoter; endogenous in cells
T1 sequence (P40763 whole entry): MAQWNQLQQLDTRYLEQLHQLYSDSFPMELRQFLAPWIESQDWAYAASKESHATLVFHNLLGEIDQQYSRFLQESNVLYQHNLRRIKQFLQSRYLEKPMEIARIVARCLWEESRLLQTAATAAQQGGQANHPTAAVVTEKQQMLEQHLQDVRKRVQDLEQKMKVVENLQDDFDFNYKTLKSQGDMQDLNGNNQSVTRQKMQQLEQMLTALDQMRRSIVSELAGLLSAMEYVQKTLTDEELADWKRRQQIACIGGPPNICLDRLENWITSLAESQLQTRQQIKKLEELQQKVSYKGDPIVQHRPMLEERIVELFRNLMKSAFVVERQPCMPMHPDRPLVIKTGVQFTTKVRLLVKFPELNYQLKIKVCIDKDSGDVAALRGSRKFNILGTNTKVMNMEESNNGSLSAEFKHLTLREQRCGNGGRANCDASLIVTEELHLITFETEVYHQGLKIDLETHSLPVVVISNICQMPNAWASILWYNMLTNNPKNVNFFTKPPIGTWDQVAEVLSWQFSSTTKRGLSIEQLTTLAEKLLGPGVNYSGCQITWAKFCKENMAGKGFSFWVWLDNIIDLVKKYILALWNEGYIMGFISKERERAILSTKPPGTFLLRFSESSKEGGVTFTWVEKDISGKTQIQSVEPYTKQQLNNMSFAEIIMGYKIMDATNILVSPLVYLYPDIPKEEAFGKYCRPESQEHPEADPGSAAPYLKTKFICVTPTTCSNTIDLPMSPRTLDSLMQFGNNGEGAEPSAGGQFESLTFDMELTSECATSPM
Method in brief: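 Cytotoxicity was run on a duplicate plate with CellTiter-Glo, while the other plate gave luciferase read-outs from lysed LNCaP pSTAT3-TA-luc reporter cells. Cells were treated with graded compound concentrations plus IL-6 (10 ng/mL final) for 24–48 h in 3% DCC-FBS medium. Unstimulated and stimulated wells served as negative and positive controls.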

[5] = tested on: LNCaP; assay: Cell growth inhibition assay, prostate cancer cell line LNCaP (medium with 10 ng/mL IL-6); conditions: Homo sapiens, medium supplemented with 10 ng/mL of IL-6, 10,000 cells/well

SMILES | IC50 [1] [µM] | IC50 [2] [µM] | IC50 [3] [µM] | IC50 [4] [µM] | IC50 [5] [µM]
COc1cc(OC(F)(F)F)cc(C(C)(C)c2cc(Br)cc(NC(=O)c3cc4cc(NS(C)(=O)=O)cnc4s3)c2)c1 [Example 56, N-(3-bromo-5-(2-(3-methoxy-5-(trifluoromethoxy)phenyl)propan-2-yl)phenyl)-5-(methylsulfonamido)thieno[2,3-b]pyridine-2-carboxamide] | 0.069 | 0.43 | 0.3 | 0.072 | 0.25
COc1cc(OC(F)(F)F)cc(C(C)(C)c2cc(Cl)cc(NC(=O)c3cc4cc(NS(C)(=O)=O)cnc4s3)c2)c1 [Example 57, N-(3-chloro-5-(2-(3-methoxy-5-(trifluoromethoxy)phenyl)propan-2-yl)phenyl)-5-(methylsulfonamido)thieno[2,3-b]pyridine-2-carboxamide] | 0.047 | 0.33 | 0.18 | 0.067 | 0.16
CCOc1cc(OC(F)(F)F)cc(C(C)(C)c2cc(Cl)cc(NC(=O)c3cc4cc(NS(C)(=O)=O)ccc4s3)c2)c1 [Example 58, N-(3-chloro-5-(2-(3-ethoxy-5-(trifluoromethoxy)phenyl)propan-2-yl)phenyl)-5-(methylsulfonamido)benzo[b]thiophene-2-carboxamide] | 0.006 | 0.005 | 0.074 | 0.007 | 0.032
CCOc1cc(OC(F)(F)F)cc(C(C)(C)c2cc(Cl)cc(NC(=O)c3cc4ccc(NS(C)(=O)=O)cc4[nH]3)c2)c1 [Example 59, N-(3-chloro-5-(2-(3-ethoxy-5-(trifluoromethoxy)phenyl)propan-2-yl)phenyl)-6-(methylsulfonamido)-1H-indole-2-carboxamide] | 0.039 | 0.16 | 0.42 | 0.021 | 0.12
CCOc1cc(OC(F)(F)F)cc(C(C)(C)c2cc(Br)cc(NC(=O)c3cc4cc(NS(C)(=O)=O)ncc4s3)c2)c1 [Example 61, N-(3-bromo-5-(2-(3-ethoxy-5-(trifluoromethoxy)phenyl)propan-2-yl)phenyl)-5-(methylsulfonamido)thieno[2,3-c]pyridine-2-carboxamide] | 0.06 | 0.22 | 0.14 | 0.066 | 0.13
CC(C)Oc1cc(OC(F)(F)F)cc(C(C)(C)c2cc(Cl)cc(NC(=O)c3cc4cc(NS(C)(=O)=O)cnc4s3)c2)c1 [Example 69, N-(3-chloro-5-(2-(3-isopropoxy-5-(trifluoromethoxy)phenyl)propan-2-yl)phenyl)-5-(methylsulfonamido)thieno[2,3-b]pyridine-2-carboxamide] | 0.052 | 0.14 | 0.09 | 0.052 | 0.058
CC(C)Oc1cc(OC(F)(F)F)cc(C(C)(C)c2cc(Cl)cc(NC(=O)c3cc4nc(NS(C)(=O)=O)ccc4s3)c2)c1 [Example 70, N-(3-chloro-5-(2-(3-isopropoxy-5-(trifluoromethoxy)phenyl)propan-2-yl)phenyl)-5-(methylsulfonamido)thieno[3,2-b]pyridine-2-carboxamide] | 0.12 | 0.46 | 0.36 | 0.068 | 0.29
CC(C)Oc1cc(OC(F)(F)F)cc(C(C)(C)c2cc(Cl)cc(NC(=O)c3cc4cc(NS(C)(=O)=O)ncc4s3)c2)c1 [Example 71, N-(3-chloro-5-(2-(3-isopropoxy-5-(trifluoromethoxy)phenyl)propan-2-yl)phenyl)-5-(methylsulfonamido)thieno[2,3-c]pyridine-2-carboxamide] | 0.048 | 0.17 | 0.13 | 0.009 | 0.091
CC(C)COc1cc(OC(F)(F)F)cc(C(C)(C)c2cc(Cl)cc(NC(=O)c3cc4cc(NS(C)(=O)=O)ccc4s3)c2)c1 [Example 72, N-(3-chloro-5-(2-(3-isobutoxy-5-(trifluoromethoxy)phenyl)propan-2-yl)phenyl)-5-(methylsulfonamido)benzo[b]thiophene-2-carboxamide] | 0.006 | 0.1 | 0.087 | 0.021 | 0.034
CCCOc1cc(OC(F)(F)F)cc(C(C)(C)c2cc(Cl)cc(NC(=O)c3cc4cc(NS(C)(=O)=O)ccc4s3)c2)c1 [Example 73, N-(3-chloro-5-(2-(3-propoxy-5-(trifluoromethoxy)phenyl)propan-2-yl)phenyl)-5-(methylsulfonamido)benzo[b]thiophene-2-carboxamide] | 0.006 | 0.058 | 0.056 | 0.01 | 0.033
CC#CCOc1cc(OC(F)(F)F)cc(C(C)(C)c2cc(Cl)cc(NC(=O)c3cc4cc(NS(C)(=O)=O)ccc4s3)c2)c1 [Example 75, N-(3-(2-(3-(but-2-yn-1-yloxy)-5-(trifluoromethoxy)phenyl)propan-2-yl)-5-chlorophenyl)-5-(methylsulfonamido)benzo[b]thiophene-2-carboxamide] | 0.003 | 0.021 | 0.02 | 0.008 | 0.029
CC(C)(c1cc(Cl)cc(NC(=O)c2cc3cc(NS(C)(=O)=O)ccc3s2)c1)c1cc(OCC#N)cc(OC(F)(F)F)c1 [Example 77, N-(3-chloro-5-(2-(3-(cyanomethoxy)-5-(trifluoromethoxy)phenyl)propan-2-yl)phenyl)-5-(methylsulfonamido)benzo[b]thiophene-2-carboxamide] | 0.05 | 0.22 | 0.068 | 0.12 | 0.3
CC(C)(c1cc(Cl)cc(NC(=O)c2cc3cc(NS(C)(=O)=O)ccc3s2)c1)c1cc(OC(F)(F)F)cc(OC(F)(F)C(F)F)c1 [Example 80, N-(3-chloro-5-(2-(3-(1,1,2,2-tetrafluoroethoxy)-5-(trifluoromethoxy)phenyl)propan-2-yl)phenyl)-5-(methylsulfonamido)benzo[b]thiophene-2-carboxamide] | 0.01 | 0.063 | 0.057 | 0.016 | 0.068
CC(C)Oc1cc(OC(F)(F)F)cc(C(C)(C)c2cc(F)cc(NC(=O)c3cc4cc(NS(C)(=O)=O)ccc4s3)c2)c1 [Example 82, N-(3-fluoro-5-(2-(3-isopropoxy-5-(trifluoromethoxy)phenyl)propan-2-yl)phenyl)-5-(methylsulfonamido)benzo[b]thiophene-2-carboxamide] | 0.008 | 0.045 | 0.048 | 0.024 | 0.03
CC(C)Oc1cc(CN2CCOCC2)cc(C(C)(C)c2cc(Br)cc(NC(=O)c3cc4cc(NS(C)(=O)=O)ccc4s3)c2)c1 [Example 122, N-(3-bromo-5-(2-(3-isopropoxy-5-(morpholinomethyl)phenyl)propan-2-yl)phenyl)-5-(methylsulfonamido)benzo[b]thiophene-2-carboxamide] | 0.049 | 0.18 | 0.19 | 0.12 | 0.24
